Data reported in US20250099420A1, “SMALL MOLECULE MODULATORS OF GPR139 COMPLEX” (University of Florida Research Foundation, Incorporated, priority 2022, published 2025).
pEC50: −log10 of the molar value. Read-outs that look alike come from different tables or passages of the source.

Experiments:
GPR139 = molecular target: T1, GPR139 (Homo sapiens, UniProt Q6DWJ6); experiment: GPR139 Agonist titration / agonist counterscreen assay (calcium detection, HEK-GPR139 cells); assay type: cell-based; set-up: expressed in transfected cells; host or cells: HEK Aequorin cells, Maxcyte transient transfection; conditions: GPR139 Agonist Activity; for Averaged Max % Response (±St. Dev.): activity relative to known control; for pEC50: read-out: EC50
T1 sequence (Q6DWJ6 1-353): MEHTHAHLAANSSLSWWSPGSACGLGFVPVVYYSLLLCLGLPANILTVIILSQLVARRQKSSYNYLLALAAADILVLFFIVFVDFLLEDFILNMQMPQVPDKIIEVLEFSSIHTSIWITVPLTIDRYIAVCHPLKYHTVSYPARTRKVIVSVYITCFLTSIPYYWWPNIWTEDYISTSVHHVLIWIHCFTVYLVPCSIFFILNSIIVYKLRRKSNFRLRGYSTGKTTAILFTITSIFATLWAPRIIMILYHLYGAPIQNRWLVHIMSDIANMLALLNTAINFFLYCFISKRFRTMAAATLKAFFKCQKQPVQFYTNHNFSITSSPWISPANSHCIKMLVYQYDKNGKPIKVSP
Protocol: GPR activity was assessed using a calcium detection assay. […] Negative control samples were treated with DMSO. […] Intracellular calcium was measured using Calcium 5.

parental HEK cells = experiment: HEK parental Agonist Counterscreen Assay (non-transfected cells); assay type: cell-based; conditions: for Averaged Max % Response (±St. Dev.): activity relative to known control
From the text: The high control for the agonist counterscreen was Forskolin not acetylcholine.

[1] = values printed in E-notation without unit
[2] = HEK Agonist Activity, parental non-transfected HEK cells
[3] = Homo sapiens, HEK293, HEK Agonist Activity section of Table 4 (parental HEK counterscreen)
[4] = HEK Agonist Activity section of Table 4 (parental HEK counterscreen)

Compound | Averaged Max % Response (±St. Dev.) (GPR139) [%] | Lipophilic Efficiency (logD) (GPR139; based on logD) | Lipophilic Efficiency (logP) (GPR139; based on logP) | Hill Slope (GPR139; fitted dose-response curve) | Efficiency Ligand (GPR139; ligand efficiency) | pEC50 (GPR139; [1]) | Lipophilic Efficiency (logD) (parental HEK cells; HEK Agonist Activity section) | Lipophilic Efficiency (logP) (parental HEK cells; HEK Agonist Activity section) | Averaged Max % Response (±St. Dev.) (parental HEK cells; HEK Agonist Activity section) [%] | pEC50 (parental HEK cells; [3]) | Efficiency Ligand (GPR139) | Hill Slope (GPR139) | Lipophilic Efficiency (logD) (GPR139) | Lipophilic Efficiency (logP) (GPR139) | pEC50 (GPR139; HEK-GPR139 cells) | pEC50 (parental HEK cells; [4]) | further results
CCc1cccc(NC(=O)Cn2ncc3c2-c2ccccc2OC3)c1 [SR-01000098944] | 118.40 ± 16.09 | 4.22 | 4.22 | 0.20 | 0.43 | 7.65 | – | – | – | – | – | – | – | – | – | – | Lipophilic Efficiency (logD) (parental HEK cells; HEK Agonist Activity): 1.42; Lipophilic Efficiency (logP) (parental HEK cells; HEK Agonist Activity): 1.42; Averaged Max % Response (±St. Dev.) (parental HEK cells; HEK Agonist Activity): 16.33 ± 3.15%; pEC50 (parental HEK cells; [2]): < 4.85
C=C(CC1C=CC2=C1c1ccccc1CC2)Nc1ccc(CC)cc1 (stereo not shown) [SR-01000098976] | 103.10 ± 11.12 | 4.60 | 4.60 | 0.87 | 0.39 | – | 2.53 | 2.53 | 25.21 ± 6.04 | < 4.85 | – | – | – | – | – | – | –
O=C(Cn1ncc2c1-c1ccccc1OC2)Nc1ccc(Cl)cc1 [SR-01000098980] | 103.90 ± 24.19 | – | – | – | – | – | 1.77 | 1.77 | 16.39 ± 16.07 | – | 0.36 | 0.43 | 3.09 | 3.09 | 6.17 | < 4.85 | –
CCc1nn(CC(=O)NCc2cccc(Br)c2)c(=O)c2cc3occc3n12 [SR-01000099472] | 105.06 ± 17.21 | 5.32 | 5.32 | 0.88 | 0.39 | 7.58 | – | – | – | – | – | – | – | – | – | – | Lipophilic Efficiency (logD) (parental HEK cells; HEK Agonist Activity): 2.60; Lipophilic Efficiency (logP) (parental HEK cells; HEK Agonist Activity): 2.60; Averaged Max % Response (±St. Dev.) (parental HEK cells; HEK Agonist Activity): 10.79 ± 6.86%; pEC50 (parental HEK cells; Homo sapiens, HEK293, HEK Agonist Activity, parental non-transfected HEK cells): < 4.85
O=C(Cn1ncn2c(cc3sccc32)c1=O)NCCc1ccc(Cl)cc1 [SR-01000099712] | 90.08 ± 9.76 | – | – | – | – | – | 2.50 | 2.50 | 7.86 ± 5.01 | < 4.85 | 0.33 | 1.73 | 3.73 | 3.73 | 6.08 | – | –
CCCc1cc(=O)n2[nH]c(NCc3ccccc3F)nc2n1 [SR-01000100493] | 100.68 ± 11.72 | 3.60 | 3.60 | 0.73 | 0.43 | 6.80 | 1.65 | 1.65 | 4.54 ± 3.12 | – | – | – | – | – | – | < 4.85 | –
Cc1ccc(Br)cc1S(=O)(=O)NCCC(=O)NCCc1sccc1C [SR-01000101329] | 102.96 ± 12.58 | 5.16 | 5.15 | 0.79 | 0.38 | – | 3.17 | 3.16 | −2.50 ± 6.06 | < 4.85 | – | – | – | – | – | – | –
COc1ccc(CCC(=O)Nc2ccc(/C(N)=N/O)cc2)cc1 [SR-01000103876] | 114.46 ± 17.21 | 4.50 | 4.50 | 0.82 | 0.41 | 6.75 | 2.61 | 2.60 | 1.17 ± 3.96 | – | – | – | – | – | – | < 4.85 | –
CC(C)CCNC(=O)C1C2C=CC3(CN(Cc4ccccc4Cl)C(=O)C13)O2 (stereo not shown) [SR-01000104567] | 119.91 ± 2.22 | 5.19 | 5.19 | 0.32 | 0.40 | 7.70 | – | – | – | – | – | – | – | – | – | – | Lipophilic Efficiency (logD) (parental HEK cells; HEK Agonist Activity): 2.34; Lipophilic Efficiency (logP) (parental HEK cells; HEK Agonist Activity): 2.34; Averaged Max % Response (±St. Dev.) (parental HEK cells; HEK Agonist Activity): 8.02 ± 5.87%; pEC50 (parental HEK cells; [2]): < 4.85
CC(NC(=O)CN1CCN(Cc2ccc(Cl)cc2)C1=O)c1ccccc1 (stereo not shown) [SR-01000105214] | 114.03 ± 9.34 | 3.89 | 3.89 | 0.51 | 0.36 | 6.61 | 2.13 | 2.13 | −5.28 ± 2.10 | < 4.85 | – | – | – | – | – | – | –
CSc1ccc(CCNC(=O)Cn2ncc3c(=O)oc4ccccc4c32)cc1 [SR-01000105999] | 100.11 ± 8.55 | – | – | – | – | – | 2.04 | 2.04 | 4.15 ± 6.01 | < 4.85 | 0.32 | 1.37 | 3.64 | 3.64 | 6.45 | – | –
Cc1ccc2c(c1)-c1c(cnn1CC(=O)Nc1ncccc1C)CO2 [SR-01000106321] | 96.96 ± 1.13 | – | – | – | – | – | 1.97 | 1.97 | 6.49 ± 5.13 | – | 0.34 | 1.43 | 3.26 | 3.26 | 6.14 | < 4.85 | –
CCOC(=O)C1C2C=CC3(CN(C(C)c4ccc(Br)cc4)C(=O)C13)O2 (stereo not shown) [SR-01000114492] | 84.13 ± 7.28 | – | – | – | – | – | 2.28 | 2.28 | −1.32 ± 3.21 | – | 0.34 | 0.90 | 3.50 | 3.50 | 6.07 | < 4.85 | –
COc1ccc(C(C)N2CC34C=CC(O3)C(C(=O)OCC(C)C)C4C2=O)cc1 (stereo not shown) [SR-01000114500] | 93.61 ± 11.95 | 4.21 | 4.21 | 1.06 | 0.34 | 6.73 | 2.32 | 2.32 | 4.75 ± 6.36 | – | – | – | – | – | – | < 4.85 | –
O=C(CCS(=O)(=O)c1cccc2nonc12)NCCc1ccc(Cl)cc1 [SR-01000119565] | 68.12 ± 14.87 | – | – | – | – | – | 2.79 | 2.79 | 5.54 ± 5.16 | – | 0.30 | 1.07 | 3.46 | 3.46 | 5.52 | < 4.85 | –
